For data set [1], the system named is DLBCL patients. The experiment in a line: Phase I trial in DLBCL patients: glucocorticoid cohorts, dose-limiting toxicities (DLT). In kind it is in vivo, human. The following applies: for Safety assessment of cohort: DLBCL cohorts, antibody 5/15/60 μg/m2/d with glucocorticoid medication. The protocol: A Phase I clinical trial was performed in patients with various B-NHL including DLBCL to evaluate the CD19×CD3 bispecific antibody construct in DLBCL patients. Patients were treated for 4-8-weeks by continuous i.v. administration of the antibody with the following step-wise dosing regimen: first week at 5 μg/m^2/d, second week at 15 μg/m^2/d and for the remaining treatment period at 60 μg/m^2/d.
Two cohorts each with 6 DLBCL patients were enrolled. The two cohorts solely differed by the dose and schedule of the glucocorticoid medication administered at the beginning of the antibody infusion for mitigation of adverse events.
Out of the twelve patients, 5 were male and 7 female. The median age was 57 years (range from 24 to 78 years). Patients had received a median of 4 prior regimens (range from 2-6). All patients had been exposed to rituximab. Eight of the 12 patients had undergone ASCT. International prognostic index (IPI) at screening ranged from 1 to 3 with a median of 2.

For data set [2] the following is noted: cited from earlier work.
Data set [3] concerns patients treated with blinatumomab. The experiment in a line: Dexamethasone prophylaxis to prevent neurological adverse events during blinatumomab treatment. In kind it is in vivo, human. The following applies: Patient 108-010, trial 103-104, DLBCL; as other patients (20 mg dexamethasone 12 h and 1 h before) plus 100 mg prednisolone one hour before start of infusion. On the procedure:
Besides the therapeutic use of dexamethasone to mitigate neurological adverse events, dexamethasone was also used as prophylaxis in order to prevent neurological adverse events.
(§1) Each of the following 5 patients in trial 103-104 (all with DLBCL) were treated with blinatumomab continuous infusion at 5 μg/m2/d for the 1st week, then 15 μg/m2/d for the 2nd week, and then 60 μg/m2/d for the remaining treatment period that could an additional 2-6 weeks.

For data set [4], the system named is patients with B-NHL. The experiment in a line: Neurological/psychiatric adverse events under blinatumomab continuous infusion. Format: in vivo, human. The protocol: For the clinical trials in connection with the application of a CD19×CD3 bispecific single chain antibody for the treatment of tumorous mass of lymph node tissue and/or extranodal lymphoma caused by DLBCL, the present inventors had to develop a treatment regime which was efficient and would be well tolerated by most of the patients. To this end, the present inventors applied a step-wise application of a CD19×CD3 bispecific single chain antibody in that 5/15/60 μg/m^2/24 h was administered to patients. […] Also contemplated in the step-wise administration of a CD19×CD3 bispecific single chain antibody is a treatment regime using two of the dosages, such as 5/15 μg/m^2/24 h, 5/60 μg/m^2/24 h, or 15/60 μg/m^2/24 h for the duration of the patient's treatment. The appropriate dosage can be selected by the clinician on the basis of efficacy, tolerability and safety with a minimum of adverse effects in the patient.

Data set [5] relates to malignant CD19 positive lymphocytes. The experiment in a line: Tumour response to blinatumomab in patients given dexamethasone prophylaxis. In kind it is in vivo, human.
Excerpt: By “complete response” is intended an absence of clinically detectable disease with normalization of any previously abnormal imaging studies such as radiographic studies. Such a response preferably persists for at least 4 to 8 weeks, sometimes 6 to 8 weeks or more than 8, 10, 12, 14, 16, 18 or 20 weeks or longer, following treatment according to the invention. Alternatively, an improvement in the disease may be categorized as being a partial response.
Detailed remission and response definitions for NHL patients are used according to Cheson et al., 1999, J Clin Oncol. April; 17(4):1244
By “partial response” is intended at least about a 50% decrease in all measurable tumor burden (i.e., the number of malignant cells present in the patient, or the measured bulk of tumor masses) in the absence of new lesions and persisting for 4 to 8 weeks or more than 8, 10, 12, 14, 16, 18 or 20 weeks or longer. A “complete response” does, however, not necessarily indicate that a disease has been cured, since a patient may relapse. However, if so, the patient can again be treated with a composition comprising a CD19×CD3 bispecific antibody as described herein.
as §1

Data set [6] deals with patients with B cell malignancies. To be noted: cited from earlier work.
Data set [7] deals with lymphoma target cells. The following applies: cited from earlier work.
The mark [8] stands for this setting: non-Hodgkin's lymphoma patients.

Entries after “also recorded” stand apart in the source; their conditions may differ.

`C[C@@H]1C[C@H]2[C@@H]3CCC4=CC(=O)C=C[C@]4(C)[C@@]3(F)[C@@H](O)C[C@]2(C)[C@@]1(O)C(=O)CO` [Dexamethasone]: in data set [1], the “Safety assessment of cohort” value is given as “considered safe”. For the same molecule, the DLT entry is reported as “one of the first two patients having a DLT” in data set [1] (prophylactic dexamethasone cohort: 3×8 mg at start of infusion or dose increase, 3×6 mg or 3×4 mg on following 2 days, first two patients); “no DLT was observed” in data set [1] (“early dexamethasone” schedule: 20 mg at −12 to −6 hours and −1 hour, 3×8 mg during following 2 days, total of 5 DLBCL patients).

`C[C@]12CCC(=O)C=C1CC[C@@H]1[C@@H]2[C@@H](O)C[C@@]2(C)[C@H]1CC[C@]2(O)C(=O)CO` [Hydrocortisone]: the Biologic half-life in data set [2] is recorded as 8-12 hrs.

Regarding `C[C@H]1C[C@@H]2[C@H]([C@@H](O)C[C@@]3(C)[C@H]2CC[C@]3(O)C(=O)CO)[C@@]2(C)C=CC(=O)C=C12` [Methylprednisolone], the Biologic half-life in data set [2] is 18-36 hrs.

For `C[C@]12C=CC(=O)C=C1CC[C@@H]1[C@@H]2[C@@H](O)C[C@@]2(C)[C@H]1CC[C@]2(O)C(=O)CO` [Prednisolone], the “Discontinuation due to neurological/psychiatric adverse events” value in data set [3] is “did not have to discontinue”. Also, the “Safety assessment of cohort” value in data set [1] is listed as “considered safe”. The DLT result in data set [1] (prednisolone DLBCL cohort: 100 mg prednisolone 1 hour prior to start, antibody 5/15/60 μg/m2/d) is recorded as “just one DLT (reversible CNS event grade 3)”. The Biologic half-life in data set [2] is reported as 18-36 hrs.

Consider `C[C@]12C=CC(=O)C=C1CC[C@@H]1[C@@H]2C(=O)C[C@@]2(C)[C@H]1CC[C@]2(O)C(=O)CO` [Prednisone], for which the Biologic half-life in data set [2] is reported as 18-36 hrs.

For the molecule Blinatumomab, the “Adverse effects, in particular neurological/psychiatric events, with step-wise application” value in data set [4] (DLBCL patients, step-wise 5/15/60 μg/m2/24 h) is “reduced in number, ameliorated and even prevented”. In addition, the Neurological adverse events result in data set [4] (Patient 109-036, follicular lymphoma, starting day 11, four days after step from 5 to 60 μg/m2/d) was “neurological adverse events (tremor and apraxia)”; in data set [4] (Patient 109-038, DLBCL, 5/15/60 μg/m2/d, day 15), “developed intention tremor”; in data set [4] (Patient 109-039, MCL, 5/15/60 μg/m2/d, day 17), “developed tremor and slight speech disturbance”; in data set [4] (Patient 153-002, MCL, 5/15/60 μg/m2/d, day 4), “developed slight speech problems”. In addition, the “Treatment stop due to neurological/psychiatric adverse events” value in data set [4] (Patient 135-001, DLBCL, day 4 after step to 60 μg/m2/d, too fast to intervene with dexamethasone) was “had to stop due to neurological/psychiatric adverse events”. Also, the “Treatment stop due to neurological adverse event” value in data set [4] (Patient 153-002, MCL, day 22, paresis disappeared without intervention) is “had to stop treatment due to paresis”. Moreover, the Tumour response result is reported as “objective responses have been observed” in data set [5] (DLBCL patients with “early dexamethasone” schedule, Phase I); “complete remission” in data set [5] (Patient 155-001, relapsed ALL, blinatumomab 15 μg/m2/d 16 days, dexamethasone prophylaxis 8 mg); “complete remission” in data set [5] (patient with ALL, blinatumomab 15 μg/m2/d, dexamethasone prophylaxis days 1-3). Besides, the “Tumour response of the lymphoma” value in data set [5] (trial 103-104, DLBCL, blinatumomab 5/15/60 μg/m2/d, 20 mg dexamethasone prophylaxis, one patient per block) is “objective response; also recorded: complete remission”. For the same molecule, in data set [6] (escalating doses as bolus infusions, B cell malignancies, retrospective analysis), the “Patients with early neurological reaction (confusion, ataxia, speech disorder, disorientation)” value is 7 out of 22. Further, in data set [6] (patient with B-CLL, 20 minute-infusions of 3 and 10 microgram, WO 99/54440), the Cytokine release result is “release of TNF, IL-6 and IL-8 has been found”. In addition, the “Dose leading to elimination of lymphoma target cells in blood (doses as low as)” value in data set [7] (continuously administered over four weeks, non-Hodgkin's lymphoma patients) is 0.005 milligrams per square meter per day. For the same molecule, the “Patients with tumor regression” value in data set [7] (dose level 0.06 milligrams/m^2/d) is “all seven patients”. Further, the “Dose level at which partial and complete tumor regressions were first observed” value in data set [7] (setting [8]) is listed as 0.015 milligrams/m^2/d. Also, in data set [7] (setting [8]), the “Tumor cells in bone marrow and liver” value was “clearance of tumor cells from bone marrow and liver”.

Values taken from patent US10130638B2, “Prevention of adverse effects caused by CD3 specific binding domains” (AMGEN RESEARCH (MUNICH) GMBH, priority 2010, dated 2018).
